One data set concerns HL-60. The data set can be described thus: Antiproliferative activity against human HL60 cells incubated for 2 days by MTT assay. The format is functional, cell-based. Conditions: HL-60, 48 h. A general note: Formazan colour is commonly taken as a measure of viable cells.
The subject of a further data set is K562. Description: Antiproliferative activity against human K562 cells assessed as reduction in cell viability incubated for 2 days by MTT assay. Conditions: K562, 48 h. The format is functional, cell-based.
Data set [1] has as its system RAW264.7. Description: Antiinflammatory activity against mouse RAW264.7 cells assessed as reduction in TNFalpha level. It is filed as functional, cell-based.
The test system of data set [2] is RAW264.7. Description: Antiinflammatory activity against mouse RAW264.7 cells assessed as reduction in IL6 level. It is filed as functional, cell-based.
A short description of data set [3]: Cytotoxicity against mouse RAW264.7 cells assessed as reduction in cell viability incubated for 2 days by MTT assay. It is filed as cell-based.
Data set [4] in a line: Antioxidant activity assessed as ferric reducing ability. The format is functional.
The nature of data set [5]: Antioxidant activity assessed as DPPH radical scavenging activity. It is filed as functional. Conditions: dose or concentration not given here. On the technique in general: DPPH is a stable violet radical that fades when it is reduced.
Data set [6] is described as follows: Cytotoxicity against mouse RAW264.7 cells assessed as cell viability at 2.7 ug/ml incubated for 2 days by MTT assay relative to control. The format is cell-based. Conditions: read-out: Activity.
Data set [7] in a line: Antioxidant activity assessed as trolox equivalent antioxidant capacity. The format is functional.
For the next data set, the system named is KG-1a. Description: Antiproliferative activity against human KG1a cells assessed as reduction in cell viability incubated for 2 days by MTT assay. It is filed as functional, cell-based. Conditions: 48 h.
Data set [8] deals with RAW264.7. The data set can be described thus: Antiinflammatory activity against mouse RAW264.7 cells assessed as reduction in TNFalpha level at 2.7 ug/ml. The format is functional, cell-based.
Data set [9] has as its system RAW264.7. The data set can be described thus: Antiinflammatory activity against mouse RAW264.7 cells assessed as reduction in IL6 level at 2.7 ug/ml. The format is functional, cell-based.
The subject of a further data set is PBMC. Description: Cytotoxicity against human PBMC assessed as reduction in cell viability incubated for 2 days by MTT assay. It is filed as cell-based. Conditions: 48 h.
In another data set the test system is EOL1. Description: Antiproliferative activity against human EOL1 cells incubated for 2 days by MTT assay. It is filed as functional, cell-based. The note with it: EOL1, 48 h.

In brackets after ≈: the same amount, converted by molar mass. Activity calls are given as the source filed them. The rule behind the calls is not given here.

Six compounds from ChEMBL document CHEMBL4622912, “Isolation and biological activity of agrostophillinol from kaffir lime (Citrus hystrix) leaves” (Bioorg Med Chem Lett, 2020) can be followed below.

For orientation: IC50 means the midpoint of a concentration-inhibition curve. For `CC[C@]1(O)C[C@H]2CN(CCc3c([nH]c4ccccc34)[C@@](C(=O)OC)(c3cc4c(cc3OC)N(C=O)[C@H]3[C@@](O)(C(=O)OC)[C@H](OC(C)=O)[C@]5(CC)C=CCN6CC[C@]43[C@@H]65)C2)C1` [VINCRISTINE], half-maximal inhibition with HL-60 (IC50) was put at 0.008 µg/mL (≈ 0.0097 µM).
As to `C=C(C)[C@@H]1CC[C@]2(C)CC[C@]3(C)[C@H](CC[C@@H]4[C@@]5(C)CC[C@H](O)C(C)(C)[C@@H]5CC[C@]43C)[C@@H]12` [LUPEOL], in the data set with K562, the IC50 was 82.8 µg/mL (≈ 194 µM).
The inhibition is the share of the control response that was lost under treatment. For `C[C@@H]1C[C@H]2[C@@H]3CCC4=CC(=O)C=C[C@]4(C)[C@@]3(F)[C@@H](O)C[C@]2(C)[C@@]1(O)C(=O)CO`, the inhibition entry in the data set on RAW264.7 [1] and in the data set on RAW264.7 [2] was “Dose-dependent effect” each time.
A word on the IC20: it is the point of the concentration-response curve where the effect stands at 20%. Take `C=C(CC[C@@H](C)[C@H]1CC[C@@]2(C)[C@@H]3CC[C@H]4C(C)(C)[C@@H](O)CC[C@]4(C)C3=CC[C@]12C)C(C)C`: the 50% inhibitory concentration (IC50) in the data set on HL-60 was 53.4 µg/mL (≈ 121 µM); in the data set with K562 it was over 100 µg/mL; in the data set on KG-1a, over 100 µg/mL; in the data set on PBMC, over 100 µg/mL; in the data set on EOL1 it was 36.3 µg/mL (≈ 82.4 µM). Also, the IC20 at 48 h in data set [3] amounted to 2.7 µg/mL (≈ 6.13 µM). The figures for the Activity in data set [4] and in [7] were 0.2 µM and 0.1 µM, respectively. Further, the inhibition in data set [5] was 8.6%. For the same compound, in [6], the viability at 48 h, 2.7 ug/ml was determined as 80%. Moreover, the inhibition result in the data set with RAW264.7 [8] and in the data set with RAW264.7 [9] was “Active” each time.
Turning to `C/C(=C\CO)CCC[C@H](C)CCC[C@H](C)CCCC(C)C` [TRANS-PHYTOL], the IC50 in the data set with K562 was 45.8 µg/mL (≈ 154 µM).
`O=C1O[C@H]([C@@H](O)CO)C(O)=C1O`: the figures for the Activity in data set [4] and in [7] were 23.7 µM and 1.7 µM, respectively.
